This passage reports melting point results from a melting point compilation (Tetko et al.; mined from patent text by program, amines drawn as free bases though some values may be those of a salt).

As for `CC(C)Nc1nc2c(F)c(F)c(F)cc2[nH]1`, the melting point (as a rule, the temperature, or range, at which the solid turns liquid) is 182 to 184 °C. As to `OCc1cccc2c1CCc1ccsc1-2`, the melting point lay in the range of 99 to 100 °C. For `COc1ccc(-c2cc(=O)c3c(OCC4=COC(C)(C)O4)cc(OCC4=COC(C)(C)O4)cc3o2)cc1O` the value was 160 °C; for `COC(=O)COc1ccc(C(=O)OCc2ccccc2)cc1`, 63 to 66 °C. The compound `COc1cc(C)c(C(=O)c2c(Cl)cccc2Cl)cc1OC` gave a melting point of 101 to 103 °C. For `O=C1NCC=NN1c1ccc(C(CCl)c2ccc(Cl)cc2)c(C(F)(F)F)c1` (centres undefined) the value was 157 to 158 °C. Take `O=C(NCCc1ncc(Cl)cc1Cl)c1ccccc1C(F)(F)F`: the melting point stood at 118 °C. For `CCOC(=O)c1c(-c2ccccc2)nn2c1-c1ccccc1CC2`, the melting point is 84 to 85 °C. In turn, `COCOc1ccc(/C=C/C(=O)/C=C/c2ccc(OCOC)c(OCOC)c2)cc1OCOC` yielded a melting point of 86 to 88 °C.

`COCc1nc2c(OC)ccc(C(O)(Cc3ccncc3)Cc3ccncc3)c2[nH]1` registered a melting point of 210 °C.

In turn, `Cc1ccc(NC(=O)N(C)Cc2cccc3c2C(=O)N(C2CCC(=O)NC2=O)C3=O)cc1` (centres undefined) yielded a melting point of more than 260 °C.

On to `COC(=O)COc1cc2c(c(Cl)c1C)C(=O)C1(CCCC1)C2=O`, for which the melting point was in the range of 152 to 154 °C. In turn, `CC(=O)C1(C)COC(C)(C)OC1` showed a melting point of 48 to 50 °C. The compound `CCCCN1CN(C2CC(OC(=O)c3ccccc3C)C(COC(=O)c3ccccc3C)O2)C(=O)NC1=O` (centres undefined) displayed a melting point of 170 to 172 °C. Compound `CNC(=O)c1cccc(C=O)c1O` registered a melting point of 129 to 131 °C. In turn, `CC(C)Oc1cccc(C=C2Oc3ccc(C(=O)O)cc3C2=O)c1` yielded a melting point of 277 to 279 °C. Regarding `CC(=O)NC1=CC(C)(C)Oc2ccc(C#N)cc21`, the melting point lay within 146 to 147 °C. The compound `O=C(O)c1oc(-c2ccccc2)cc(=O)c1Br` gave a melting point of 247 °C. For `CNC(=O)N(N)c1nnc(C(F)(F)F)s1` the value was 181 to 182 °C. The compound `O=c1cc(-c2ccncc2)nc2n(CCCc3c[nH]c4ccccc34)ccn12` had a melting point of 201 to 203 °C. Compound `O[C@@H](CNCC1CCN(CCC(F)(F)F)CC1)COc1ccc(Br)c2[nH]c3ccccc3c12` showed a melting point of 79 °C. The compound `CCCCc1c(C)c2ccc(OCCCCl)cc2[nH]c1=O` had a melting point of 203 °C. On to `CC(C)(C)OC(=O)CC(NC(=O)C1CCCN2C(=O)CCC(NC(=O)c3ccccc3)C(=O)N12)C(=O)COC(=O)c1c(Cl)cccc1Cl` (centres undefined), for which the melting point is 102 to 107 °C. Compound `CCNc1nc(N)c(SC)c(Cl)n1` registered a melting point of 124 °C. The result for `CN1CCC(OC2c3cccc(Br)c3CCn3cc(-c4ccccc4)nc32)CC1` (centres undefined) reads 83 °C; that for `CN1CCN(c2ccc(Nc3ncc4ccc(Nc5ccccc5)n4n3)cc2)CC1`, 152 to 157 °C. As to `CCCOc1ccc(S(=O)(=O)N2CCN(C(C)=O)CC2)cc1-c1nc2cc(N)c([N+](=O)[O-])cc2c(=O)[nH]1`, the melting point was in the range of 249 to 251 °C. In turn, `Fc1ccc2c(c1)N=C(N1CCNCC1)c1sccc1N2` had a melting point of 165 to 167 °C. In the case of `O=C(O)CC(Sc1ccccc1)c1ccc(Cl)cc1` (centres undefined), the melting point lay within 99 to 102 °C. `CCOC(=O)c1c(C)cc2c(c1C)c(=O)n(-c1ccccc1Cl)c(=O)n2CC(=O)N1CCN(C)CC1` showed a melting point of 64 to 65 °C.

`CC(NSC(=O)OC(C)(C)C)C(=O)n1c(=O)[nH]c2ccccc21` (centres undefined) gave a melting point of 101 °C. `CCOC(=O)[C@@H](Cc1cccnc1)NC(C)=O` displayed a melting point of 80 °C. Turning to `CCCC(=O)NCc1c(-c2ccc(C)cc2)nc2ccc3ccccc3n12`, the melting point was in the range of 238 to 239 °C. Consider `Cn1c2c(c3ccccc31)CC(C(=O)O)N(C(=O)c1ccc(Cl)cc1)C2` (centres undefined), for which the melting point is 262 to 263 °C. `c1ccc2cc(Cc3ccncc3)ccc2c1` displayed a melting point of 66 to 67 °C. Consider `CCCCCCCCCCC(=O)NCCCCCCCCCCCC(=O)O`, for which the melting point lay in the range of 102 to 104 °C.

Turning to `C#CCOc1cccc(C)c1S(N)(=O)=O`, the melting point is 129 °C. Compound `COc1cc2c(Nc3ccc(Cl)cc3F)ncnc2cc1OCCN1CCN(C)CC1` returned a melting point of 173 to 175 °C. The result for `COCC1CN(c2ccc3cc(OCCC#N)ccc3c2)C(=O)O1` (centres undefined) reads 110 to 112 °C; that for `COc1cc(CC(=O)O)n(C)c1C(=O)c1ccc(Cl)cc1`, 142 °C; that for `Nc1nc(O)c2c(n1)NCC(CCC1CCC(N[C@@H](CCC(=O)O)C(=O)O)CC1)C2` (some centres undefined), 210 to 225 °C.

Compound `O=C(CCCCC1CCN(Cc2ccccc2)CC1)c1ccc(N2CCCC2)cc1` gave a melting point of 129 to 131 °C. `CCCCc1nc2c(C)cnc(C(=O)O)c2n1Cc1ccc(-c2ccccc2-c2nnn[nH]2)cc1` yielded a melting point of 159 to 161 °C. Compound `CCOc1nn(-c2ccc(C(F)(F)F)cc2)cc1CCCOc1ccccc1CC(=O)O` returned a melting point of 114 to 115 °C. Take `Clc1ccc(-c2nc(Cl)cc(Cl)n2)cc1`: the melting point is 120 to 121 °C. With `COc1cc(OC)cc(C2=N[C@H]3CCN(C)C[C@H]3c3ccccc32)c1` (relative stereo), the melting point lay within 123 to 124 °C. Turning to `Cc1ccc(N2C(=O)CN3C(=O)CC[C@@H]32)cc1`, the melting point fell in the range of 149 to 150 °C. `CS(=O)(=O)ON=C(Cl)c1ccccc1`: the melting point fell in the range of 106 to 108 °C. The result for `CNC(=O)c1cc(C(=O)c2ccccc2)ccc1N` reads 140 °C. `COC(=O)C=Cc1ccc(OC)c(OC)c1`: the melting point lay within 72 to 74 °C. Compound `C=CCC1(C(C)(C)C(=O)O)C(=O)NC(=O)NC1=O` showed a melting point of 202 to 203 °C.

The compound `O=S(=O)(Cl)c1ccc2ccc(Br)cc2c1` displayed a melting point of 100 to 101 °C. For `CCCCCCCCCN(C[C@H]1CCC[C@H](CN(CCCCCCCCC)C(=O)Nc2ccc(N(C)C)cc2)C1)C(=O)Nc1ccc(N(C)C)cc1` (relative stereo), the melting point lay in the range of 116 to 120 °C. For `COc1ccc(-n2nc(OC(C)C)cc2-c2ccc(OCCNC(N)=O)cc2)cc1`, the melting point was 139 to 140 °C.

Compound `CC#CC(C)(C)NC(=O)C(COC)Oc1cc(Cl)cc(Cl)c1` (centres undefined) returned a melting point of 107 to 110 °C.

Turning to `Cn1ncc(C(=O)N2CCCC2)c1C(=O)Nc1cc2nc(-c3ccccc3)nn2cc1F`, the melting point is 250 to 251 °C. For `CCOC(=O)c1c(C(F)(F)F)nc(C)c(-c2ccccc2)c1O` the value was 82 to 84 °C. The result for `CCOC(=O)C(C(C)C)S(=O)(=O)c1ccc(OC)cc1` (centres undefined) reads 53 °C; that for `O=[N+]([O-])c1ccc(C=Cc2ccc(OCCCCCCO)cc2)cc1`, 118 °C; that for `CC12CCC(O)CC1=CCC1C2CCC2(C)C(n3cccn3)=CCC12` (centres undefined), 197 to 199 °C. Compound `Cc1ccc(-c2ccc3ccccc3c2C(=O)N(C)C)cc1` returned a melting point of 145 to 146 °C. For `CNC(=O)CC1=CSC2=C(C(=O)OC(C)C)C(C)CN12` (centres undefined) the value was 203 to 205 °C; for `O=C(O)C(Cl)C1c2c(Cl)c(Cl)c(Cl)c(Cl)c2C(Cl)(Cl)C1(Cl)Cl` (centres undefined), 214 to 216 °C. `COc1ccc(C(=O)NCCCN(CCCNC(=O)c2ccc(OC)cc2)C(=O)c2ccc(OC)cc2)cc1` registered a melting point of 117 to 119 °C.

The compound `CCc1cc(N(Cc2ccc(-c3ccccc3-c3nnn(C(c4ccccc4)(c4ccccc4)c4ccccc4)n3)cc2)C(C)=O)cc(CC)n1` displayed a melting point of 98 to 102 °C. For `CC(C)n1nc(-c2c(-c3ccccc3)nn3ccc(OCCC4CCCC4)cc23)ccc1=O` the value was 160 °C; for `Clc1ccccc1NC(c1ccccc1)c1ccccc1`, 98 °C. Compound `CN1CCN(S(=O)(=O)CCCO)CC1` registered a melting point of 90 to 93 °C. The compound `Cc1c(-c2cccnc2)n(CCCCc2nnn[nH]2)c2ccccc12` registered a melting point of 177 to 179 °C.

Take `CCOC(=O)C1CCCN2CCC3c4cc(Cl)ccc4N(N)C3C12` (centres undefined): the melting point fell in the range of 172 to 175 °C. For `CC(C)(C)OC(=O)N[C@H]1C=C[C@@H](C(=O)O)C1`, the melting point lay within 153 to 155 °C. `CCOC(=O)C(=C1SC(=S)N(CC(=O)O)C1=O)c1csc(NC(=S)NC(=O)c2ccccc2)n1` registered a melting point of 233 to 235 °C. `O=C(O)c1ccc(C#Cc2ccccc2F)o1` registered a melting point of 196 to 198 °C. For `COc1cccc(Nc2cc(Nc3ccc(F)c(Cl)c3)ncn2)c1` the value was 214 to 216 °C; for `Nc1cc(Br)cnc1CCCCNc1ncc(Cc2ccc(F)cc2)c(=O)[nH]1`, 146 to 148 °C. The compound `CCN1C(=O)CN=C(c2ccccc2F)c2cc(C(C)N)ccc21` (centres undefined) came in with a melting point of 53 to 55 °C.

Regarding `CC(C)(Cc1ccccc1)Oc1ccc([N+](=O)[O-])cc1`, the melting point lay within 78 to 79 °C.

`O=C1c2ccccc2C(=O)N1CCCC(=O)N1c2ccccc2N(Cc2ccccc2)C(=O)[C@H]2CCC[C@H]21` (relative stereo) registered a melting point of 182 to 184 °C. Compound `CCOC(=O)c1cnc(O)nc1NCc1ccc(OC)c(Cl)c1` gave a melting point of 117 to 122 °C.

Regarding `CCN(CC)C(=O)COC(=O)CCc1cc(S(C)(=O)=O)cc(-c2nc(=O)c3ccc(Cl)cc3s2)n1`, the melting point lay within 179 to 180 °C.

In turn, `Oc1cncc(CCCOc2cccnc2Oc2cccc(Cl)c2)c1` had a melting point of 148 to 149 °C. As for `COc1ccc(-c2c(C)c3cc(OC)ccc3n2CCCCCCBr)cc1`, the melting point amounted to 60 °C. Consider `CCCC#CC[C@H](C[C@H](N)C(=O)O)C(=O)O`, for which the melting point was 200 to 201 °C. For `C/C=C/C/C=C/CCCCCCCC(=O)Nc1nc(CC(=O)O)cs1` the value was 101 to 102 °C; for `CC1(N2C(=O)c3cccc(NCc4ccco4)c3C2=O)CCC(=O)NC1=O` (centres undefined), 158 to 160 °C; for `O=C(O)Cc1ccccc1Oc1cccc(F)c1`, 81 to 84 °C. With `O=C(CCc1ccc([N+](=O)[O-])cc1)c1c(O)c2cccnc2n(-c2ccccc2)c1=O`, the melting point was in the range of 215 to 217 °C. As for `Nc1ccc(C2=NNC(=O)CC2)cc1N`, the melting point was determined as 226 °C.

As to `O=C(O)CC1Cc2ccc(OCc3ccccc3)cc2C1` (centres undefined), the melting point lay within 127 to 129 °C.
